The text below walks through data of US12234257B2, “Triterpene saponin derivative and use thereof” (KOREA INSTITUTE OF SCIENCE AND TECHNOLOGY, priority 2020, dated 2025).

The subject of test [1] is GFP-RFP-LC3-II puncta in SH-SY5Y cells. The test is described as follows: Tandem fluorescent protein quenching assay (RFP-GFP-LC3). It is filed as cell-based, human. Conditions: transfected SH-SY5Y cells, AKNS-2 10 μM alone vs control cells. The procedure:
SH-SY5Y cells were cultured in a 24-well plate at a density of 8×10^4 cells/well on a glass cover slip. Transfection was performed in accordance with guidelines of the autophagy tandem RFP-GFP-LC3B kit. After culturing the cells for 24 hours, the cells were treated with an LC3B reagent. After the transfected cells were incubated for 24 hours, 50 nM Wart or 100 nM Baf was administered thereto, and then AKNS-2 (10 μM) was added thereto. The cells were immobilized with 4% paraformaldehyde and permeabilized with 0.1% Triton X100. Nuclei thereof were stained with 4,6-diamidino-2-phenylindole (DAPI, 25 μg/mL). Fluorescent signals were detected using a confocal microscope (Leica, Solms, Germany).

Test [2] concerns MPTP-induced in vivo PD model. The test is described as follows: Rotarod test. Particulars: MPTP 30 mg/kg i.p. mice; for behavioral performance in rotarod test (latency to fall): 2 hours and 24 hours after last MPTP. Set-up: species or system mice (C57BL/6j). As for the experimental part:
In this study, all animal management and experimental protocols were performed in compliance with guidelines of the Institutional Animal Care and Use Committee of the Korea Institute of Science and Technology. 40 mice (C57BL/6j, male, 8 weeks old) were purchased from SLC Inc. (Shizuoka, Japan). After arrival, every four mice were hosed in each cage (30 cm×18.5 cm×13 cm) and allowed free access to feed and water. All mice were housed under the following constant conditions: lights on from 6:00 to 18:00, a temperature of 23° C.±1° C., and a humidity of 50%±10%. After 7 days of a habituation period, the mice were used in the experiments according to standard protocols. 40 mice were classified into five groups such that eight mice belonged to each group. After the habituation period, all mice were orally administered with a drug every day. […] Each mouse was administered with a single dose of saline/MPTP injection every day for 8 days. At 7 days after the final MPTP injection, all mice were sacrificed by cervical dislocation, and then the whole brain, SNpc, and striatum (ST) were excised for biochemical analysis. […] A rotarod test was performed according to a known method with minimal modification (Borlongan C. V. et al., Pharmacology Biochemistry and Behavior. 1995, 52:225; Hu X. et al., Neuropharmacology, 2017, 117:352). Briefly, the test consisted of a pretraining section and a test section. The pretraining section was performed for consecutive 4 days. The mice were positioned in a cylinder of a rotarod apparatus such that tails of all mice faced an operator and trained for 300 seconds at a constant speed of 16 rpm. During the 300 seconds, mice falling to the floor were placed back on the cylinder by the operator. All mice were trained three times in total every day at an interval of about 30 minutes before administration of MPTP. […] Latency to fall off the rotarod was recorded for each mouse. […] Latency to fall off the rotarod was measured for each mouse. […] An average time of three tests was calculated to evaluate balance, grip strength, and motor coordination.
(In the rotarod test animals must keep their balance on a rotating rod.)

The test system of test [3] is MPTP-induced in vivo PD model. The test is described as follows: Wire hanging test. Also on record: species or system mice (C57BL/6j). Particulars: MPTP mice. As for the experimental part: In this study, all animal management and experimental protocols were performed in compliance with guidelines of the Institutional Animal Care and Use Committee of the Korea Institute of Science and Technology. 40 mice (C57BL/6j, male, 8 weeks old) were purchased from SLC Inc. (Shizuoka, Japan). After arrival, every four mice were hosed in each cage (30 cm×18.5 cm×13 cm) and allowed free access to feed and water. All mice were housed under the following constant conditions: lights on from 6:00 to 18:00, a temperature of 23° C.±1° C., and a humidity of 50%±10%. After 7 days of a habituation period, the mice were used in the experiments according to standard protocols. 40 mice were classified into five groups such that eight mice belonged to each group. After the habituation period, all mice were orally administered with a drug every day. […] Each mouse was administered with a single dose of saline/MPTP injection every day for 8 days. […] A time taken for the mouse to fall off the wire was recorded up to 300 seconds. On the day before MPTP administration, the test was performed three times for each mouse, and an average hanging time of three tests was analyzed as an index to evaluate balance, myofunction, and coordination. […] Average latency to fall off the wire onto the bedding material was calculated for each mouse.

Consider `C[C@@H]1O[C@@H](O[C@@H]2[C@@H](O)[C@H](O[C@@H]3[C@@H](O[C@@H]4OC[C@@H](O)[C@H](O)[C@H]4O)[C@@H](O)[C@H](O[C@H]4[C@H](OC(=O)[C@]56CCC(C)(C)C[C@H]5C5=CC[C@@H]7[C@@]8(C)C[C@H](O)[C@H](O[C@@H]9O[C@H](CO)[C@@H](O)[C@H](O[C@@H]%10OC[C@@H](O)[C@H](O)[C@H]%10O)[C@H]9O)[C@@](C)(CO)[C@@H]8CC[C@@]7(C)[C@]5(C)C[C@H]6O)OC[C@H](O)[C@@H]4O)O[C@H]3C)OC[C@H]2O)[C@H](O)[C@H](O)[C@H]1O` [Compound 1, 3-O-β-D-xylopyranosyl-(1→3)-β-D-glucopyranosylpolygalacic acid 28-O-α-L-rhamnopyranosyl-(1→3)-β-D-xylopyranosyl-(1→4)-[β-D-xylopyranosyl-(1→3)]-α-L-rhamnopyranosyl-(1→2)-α-L-arabinopyranosyl ester], for which, in test [1], the “accumulation of GFP-RFP-LC3-II puncta” value is “more cytoplasmic puncta stained with green and red fluorescence were observed compared to in the control cells”. Also, in test [2] (5 mg/kg p.o., at 24 hours), the “behavior performance in rotarod test (latency to fall)” value was “significantly improved MPTP-impaired behavior performance”. The “behavioral performance in rotarod test (latency to fall)” value in test [2] (15 mg/kg p.o.) was “the impairment was reversed”. Also, the “behavior performance in wire hanging test” value in test [3] (15 mg/kg p.o., 2 hours and 24 hours) is “impaired behavior performance was significantly improved”.
For the molecule `CCCN(CCC)CCc1cccc2c1CC(=O)N2` [ropinirole, reference compound], the “behavioral performance in rotarod test (latency to fall)” value in test [2] (5 mg/kg p.o.) is given as “the impairment was reversed”. For the same molecule, the “latency to fall off in wire hanging test” value in test [3] (5 mg/kg p.o., 2 hours) is “improved latency deteriorated by MPTP”.
